The numbers were not newly measured in patent publication US6841573B2, “Use of arachidonic acid as a method of increasing skeletal muscle mass” (Molecular Nutrition, priority 2002, dated 2005), which cites them from elsewhere.

Data set [1] has as its system intact rabbit muscle. The following applies: unstimulated intact rabbit muscle, in-vitro.
The conditions of data set [2]: 14C-labeled arachidonic acid, human skeletal muscle and kidney homogenates.
For data set [3] the following is noted: serum from forearm and kidney of human volunteers after direct infusion into brachial or renal artery.
For data set [4] the following is noted: after oral 200 mg and 1.5 g supplemented arachidonic acid per day, human, drawn blood.
In data set [5] the target is T1, cox-1 enzyme (Homo sapiens, UniProt P23219).
T1 construct: host or cells: skeletal muscle in vivo (endogenous enzyme)
The following applies: by inhibiting the normal post-exercise increase in PGF2alpha.

The conditions of data set [6]: after administering the precursor.

T1 sequence (P23219 24-599): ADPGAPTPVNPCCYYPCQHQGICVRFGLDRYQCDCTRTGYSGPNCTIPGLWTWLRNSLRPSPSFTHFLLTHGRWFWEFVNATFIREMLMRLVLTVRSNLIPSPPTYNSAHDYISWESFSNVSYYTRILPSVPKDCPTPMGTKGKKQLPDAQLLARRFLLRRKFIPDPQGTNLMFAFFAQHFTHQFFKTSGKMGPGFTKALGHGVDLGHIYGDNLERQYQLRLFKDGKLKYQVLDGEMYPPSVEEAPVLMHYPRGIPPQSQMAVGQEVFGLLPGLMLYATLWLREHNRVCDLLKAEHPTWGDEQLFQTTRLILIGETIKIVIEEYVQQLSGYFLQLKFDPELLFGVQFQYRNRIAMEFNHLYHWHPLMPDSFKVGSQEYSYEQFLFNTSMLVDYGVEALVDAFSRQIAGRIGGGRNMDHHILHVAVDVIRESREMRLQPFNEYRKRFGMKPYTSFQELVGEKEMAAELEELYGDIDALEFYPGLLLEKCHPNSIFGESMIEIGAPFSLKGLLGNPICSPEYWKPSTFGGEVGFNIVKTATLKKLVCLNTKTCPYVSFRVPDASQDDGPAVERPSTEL

Regarding `CCCCC[C@H](O)/C=C/[C@H]1C(=O)C[C@H](O)[C@@H]1C/C=C\CCCC(=O)O` [prostaglandin D2, PGD2], the “effect on rates of protein synthesis” value in data set [1] is “failed to do so”.

Take `CCCCC/C=C\C/C=C\C/C=C\C/C=C\CCCC(=O)O` [arachidonic acid]: the “prostaglandins produced during incubation” value in data set [2] was “PGD2, PGE2, PGF2 alpha and 6-keto-PGF1 alpha”. Further, in data set [3], the “labeled metabolites found in serum” value was “PGD2, PGE2, PGF2 alpha, 6-keto-PGF1 alpha and 13,14-dihydro-15-keto-PGE2 (Me) were all found”. For the same compound, in data set [4], the “in-vitro secretion of LTB4 and PGE2” value is recorded as “measurably increase”.

`CCCCC[C@H](O)/C=C/[C@@H]1[C@@H](C/C=C\CCCC(=O)O)[C@@H](O)C[C@H]1O` [prostaglandin F2 alpha, PGF2alpha]: the “effect on rates of protein synthesis” value in data set [1] is listed as “increased rates of protein synthesis”.

In the case of `CC(=O)Nc1ccc(O)cc1` [acetaminophen], in data set [5], the “effect on anabolic response of muscle to resistance exercise” value is listed as “profoundly diminish the anabolic response”.

On to `C[C@]12CCC(=O)C=C1CC[C@@H]1[C@@H]2CC[C@]2(C)C(=O)CC[C@@H]12` [androstenedione], for which, in data set [6], the “period of subsequent decline of active hormone (testosterone) concentration” value was “three to four” and the “time to peak concentration of active hormone (testosterone)” value is at most 90 min.

As for `CCCCC/C=C\C\C=C/C=C/C=C/[C@@H](SC[C@H](NC(=O)CC[C@H](N)C(=O)O)C(=O)NCC(=O)O)[C@@H](O)CCCC(=O)O` [leukotriene C4], the “effect on rates of protein synthesis” value in data set [1] is recorded as “failed to do so”.

Take `CCCCC[C@H](O)/C=C/[C@H]1C=CC(=O)[C@@H]1CCCCCCC(=O)O` [prostaglandin A1]: in data set [1], the “effect on rates of protein synthesis” value was “increased rates of protein synthesis”.

With `CCCCC/C=C\C\C=C/C=C/C=C/[C@@H](SC[C@H](N)C(=O)NCC(=O)O)[C@@H](O)CCCC(=O)O` [leukotriene D4], the “effect on rates of protein synthesis” value in data set [1] is “failed to do so”.

As to `CCCCC[C@H](O)/C=C/[C@H]1[C@H](O)CC(=O)[C@@H]1C/C=C\CCCC(=O)O` [prostaglandin E2, PGE2], the “effect on rates of protein synthesis” value in data set [1] is recorded as “failed to do so”.
